Results on 3 molecules are retold here after article PMC4103815, “P-Glycoprotein Mediated Efflux Limits the Transport of the Novel Anti-Parkinson's Disease Candidate Drug FLZ across the Physiological and PD Pathological In Vitro BBB Models” (PLoS ONE, 2014).

For series [1], the system named is PD pathological in vitro BBB model. The series can be described thus: Sodium fluorescein permeability, PD pathological co-culture BBB model. It is filed as in vitro ADME, rat. Conditions: co-culture model under Parkinson's conditions. How it is done: (§1) The flux of sodium fluorescein (NaF) across the BBB models was determined as previously described. Prior to transport studies, culture media from the top and bottom compartments were replaced with HBSS. 100 µg/ml Na-F (MW: 376 Da) was added to the upper inserts of the Transwell system. At 30, 60, 90 and 120 min, 50 µl samples were taken from the acceptor compartment and immediately replaced with fresh buffer. The concentrations of the fluorescein in samples from the upper to lower compartments were determined by fluorescence multiwell plate reader (excitation wavelength: 485 nm; emission wavelength: 535 nm). Based on the rate of influx of sodium fluorescein into the bottom compartment, permeability coefficients were calculated.

In series [2] the test system is physiological in vitro BBB model. In words: Sodium fluorescein permeability, physiological co-culture BBB model. The format is in vitro ADME, rat. As to conditions: co-culture model under normal conditions. On the procedure: as §1
In the next series the test system is normal rCMECs. The series can be described thus: Cell viability by MTT, normal rCMECs. It is filed as cell-based, rat. Conditions: 24 h; FLZ 1 to 50 µM, zosuquidar 5 µM, FTC 10 µM. How it is done:
(§2) To investigate the effects of FLZ on the growth of normal and PD rCMECs monolayers, a cell proliferation assay was performed. […] Therefore, in all following experiments, we used FLZ (1, 5 and 10 µM), zosuquidar (5 µM) and FTC (10 µM) as standard treatment.
(§3) Supplementary file pone.0102442.s001.tif: Figure S1 The cytotoxicity of FLZ (A) and inhibitors (B) in rat cerebral microvessel endothelial cells. rCMECs were exposed to the indicated concentration of FLZ (A) and transport inhibitors zosuquidar and FTC for 24 h. Each point represents the mean ± SD of three determinations. Each experiment was performed in three times. (TIF) Click here for additional data file.

For the next series, the system named is PD rCMECs. The series can be described thus: Cell viability by MTT, PD rCMECs. It is filed as cell-based, rat. As to conditions: 24 h; FLZ 1 to 50 µM, zosuquidar 5 µM, FTC 10 µM. On the procedure:
as §2, §3

For `O=C([O-])c1ccccc1-c1c2ccc(=O)cc-2oc2cc([O-])ccc12.[Na+].[Na+]` [NaF, sodium fluorescein], the “paracellular Papp of NaF” value is listed as 2.18±0.26 10^−6 cm/s in series [1] and 1.92±0.19 10^−6 cm/s in series [2].
Regarding `COc1ccc2c3c([nH]c2c1)[C@H](C=C(C)C)N1C(=O)[C@@H]2CCCN2C(=O)[C@@H]1C3` [FTC, Fumitremorgin C], in the series with normal rCMECs, the “viability of normal rCMECs (MTT)” value is “did not effect”. Also, the “viability of PD rCMECs (MTT)” value with PD rCMECs is listed as “did not effect”.
As to `O[C@@H](COc1cccc2ncccc12)CN1CCN([C@@H]2c3ccccc3[C@@H]3[C@H](c4ccccc42)C3(F)F)CC1` [zosuquidar], the “viability of normal rCMECs (MTT)” value in the series on normal rCMECs was “did not effect”. Besides, the “viability of PD rCMECs (MTT)” value with PD rCMECs is “did not effect”.
